This note sets out measurements from patent EP1561465A2, “Methods of use of fluoroquinolone compounds against bacteria” (LG Life Sciences, Ltd., priority 1999, dated 2001).

Format in all cases: cell-based
For one test, the system named is Staphylococcus aureus. The test can be described thus: MIC by NCCLS reference broth microdilution, 450 respiratory tract pathogens.
The test system of a further test is Moraxella catarrhalis. The test is described as above.
Another test relates to Klebsiella pneumoniae. Described as above. The note with it: for MIC50 / MIC90: Klebsiella pneumoniae.
The subject of another test is Haemophilus influenzae. The description is as above. The note with it: Haemophilus influenzae; for MIC90: read-out: MIC90.
Another test concerns Streptococcus pneumoniae. The test can be described thus: MIC by agar dilution (NCCLS), 411 isolates Buenos Aires 1998-99. The note with it: S. pneumoniae.
The mark [1] stands for this setting: β-lactamase positive and erythromycin resistant (n = 10).
[2] abbreviates: extended spectrum β-lactamase negative (n = 30).
Setting [3] is: extended spectrum β-lactamase positive (n = 20).
The mark [4] stands for this setting: Haemophilus influenzae (n = 100).

Values after ≈ are worked out from the molar mass of the structure shown. Like-named read-outs stand apart in the source and are kept apart here.

`COc1c(N2C[C@@H]3CCCN[C@@H]3C2)c(F)cc2c(=O)c(C(=O)O)cn(C3CC3)c12` [Moxifloxacin, moxifloxacin]: the MIC in the test with Staphylococcus aureus (Staphylococcus aureus (n = 50)) was 0.015 to 0.5 µg/mL (≈ 0.0374 to 1.25 µM); against Staphylococcus aureus (β-lactamase negative (n = 20)), 0.06 to 0.5 µg/mL (≈ 0.149 to 1.25 µM); against Staphylococcus aureus (β-lactamase positive (n = 20)) it was 0.12 to 0.5 µg/mL (≈ 0.299 to 1.25 µM); with Staphylococcus aureus (setting [1]), 0.12 to 0.5 µg/mL (≈ 0.299 to 1.25 µM); with Moraxella catarrhalis (Moraxella catarrhalis (n = 50)) it was 0.00375 to 0.12 µg/mL (≈ 0.00934 to 0.299 µM); against Moraxella catarrhalis (β-lactamase negative (n = 13)), 0.00375 to 0.12 µg/mL (≈ 0.00934 to 0.299 µM). Also, the MIC is 0.00375 to 0.12 µg/mL (≈ 0.00934 to 0.299 µM) in the test with Moraxella catarrhalis (β-lactamase positive (n = 37)), 0.0075 to 0.12 µg/mL (≈ 0.0187 to 0.299 µM) against Haemophilus influenzae (setting [4]), 0.0075 to 0.06 µg/mL (≈ 0.0187 to 0.149 µM) in the test on Haemophilus influenzae (β-lactamase negative (n = 80)) and 0.0075 to 0.06 µg/mL (≈ 0.0187 to 0.149 µM) with Haemophilus influenzae (β-lactamase positive (n = 20)). Further, the MIC50 against Staphylococcus aureus (Staphylococcus aureus (n = 50)) worked out at 0.25 µg/mL (≈ 0.623 µM); against Staphylococcus aureus (β-lactamase negative (n = 20)) it was 0.25 µg/mL (≈ 0.623 µM); with Staphylococcus aureus (β-lactamase positive (n = 20)) it was 0.25 µg/mL (≈ 0.623 µM); with Staphylococcus aureus (setting [1]), 0.25 µg/mL (≈ 0.623 µM); with Moraxella catarrhalis (Moraxella catarrhalis (n = 50)), 0.06 µg/mL (≈ 0.149 µM); against Moraxella catarrhalis (β-lactamase negative (n = 13)) it was 0.015 µg/mL (≈ 0.0374 µM). The MIC50 in the test on Moraxella catarrhalis (β-lactamase positive (n = 37)) came to 0.03 µg/mL (≈ 0.0747 µM); with Klebsiella pneumoniae (Klebsiella pneumoniae (n = 50)), 0.06 µg/mL (≈ 0.149 µM); against Klebsiella pneumoniae (setting [2]), 0.06 µg/mL (≈ 0.149 µM); in the test with Klebsiella pneumoniae (setting [3]) it was 0.5 µg/mL (≈ 1.25 µM); against Haemophilus influenzae (setting [4]), 0.03 µg/mL (≈ 0.0747 µM); with Haemophilus influenzae (β-lactamase negative (n = 80)), 0.03 µg/mL (≈ 0.0747 µM). The molecule also yielded an MIC50 against Haemophilus influenzae (β-lactamase positive (n = 20)) of 0.015 µg/mL (≈ 0.0374 µM). In addition, the MIC90 turned out to be 0.5 µg/mL (≈ 1.25 µM) in the test on Staphylococcus aureus (Staphylococcus aureus (n = 50)); 0.5 µg/mL (≈ 1.25 µM) in the test with Staphylococcus aureus (β-lactamase negative (n = 20)); 0.5 µg/mL (≈ 1.25 µM) against Staphylococcus aureus (β-lactamase positive (n = 20)); 0.5 µg/mL (≈ 1.25 µM) in the test on Staphylococcus aureus (setting [1]); 0.06 µg/mL (≈ 0.149 µM) in the test with Moraxella catarrhalis (Moraxella catarrhalis (n = 50)); 0.06 µg/mL (≈ 0.149 µM) in the test with Moraxella catarrhalis (β-lactamase negative (n = 13)). In addition, the MIC90 in the test with Moraxella catarrhalis (β-lactamase positive (n = 37)) is 0.06 µg/mL (≈ 0.149 µM); in the test on Klebsiella pneumoniae (Klebsiella pneumoniae (n = 50)) it was 0.5 µg/mL (≈ 1.25 µM); against Klebsiella pneumoniae (setting [2]), 0.25 µg/mL (≈ 0.623 µM); in the test on Klebsiella pneumoniae (setting [3]), 1 µg/mL (≈ 2.49 µM); in the test with Haemophilus influenzae (setting [4]), 0.06 µg/mL (≈ 0.149 µM); with Haemophilus influenzae (β-lactamase negative (n = 80)), 0.06 µg/mL (≈ 0.149 µM). Moreover, the MIC90 in the test on Haemophilus influenzae (β-lactamase positive (n = 20)) stood at 0.015 µg/mL (≈ 0.0374 µM). Moreover, the figures for the “MIC Range” value with Klebsiella pneumoniae (Klebsiella pneumoniae (n = 50)), against Klebsiella pneumoniae (setting [2]) and with Klebsiella pneumoniae (setting [3]) were 0.015 to 1 µg/mL, 0.015 to 0.5 µg/mL and 0.06 to 1 µg/mL, respectively.
Turning to amoxycillin/clavulanate, the MIC90 in the test with Streptococcus pneumoniae (Penicillin intermediate (n = 17)) turned out to be 1 µg/mL; in the test on Streptococcus pneumoniae (Penicillin resistant (n = 4)), 1 µg/mL; in the test on Streptococcus pneumoniae (Penicillin susceptible (n = 69)) it was 0.016 µg/mL.
